Experimental findings from patent US7087623B2, “Thiazole and other heterocyclic ligands for mammalian dopamine, muscarinic and serotonin receptors and transporters, and methods of use thereof” (Sepracor Inc., priority 2001, dated 2006) are described below.

Test [1] concerns the target T1, human serotonin 5-HT2C receptor (Homo sapiens, UniProt P28335).
T1 construct: expressed in transfected cells; host or cells: CHO-K1
T1 sequence (P28335 33-458): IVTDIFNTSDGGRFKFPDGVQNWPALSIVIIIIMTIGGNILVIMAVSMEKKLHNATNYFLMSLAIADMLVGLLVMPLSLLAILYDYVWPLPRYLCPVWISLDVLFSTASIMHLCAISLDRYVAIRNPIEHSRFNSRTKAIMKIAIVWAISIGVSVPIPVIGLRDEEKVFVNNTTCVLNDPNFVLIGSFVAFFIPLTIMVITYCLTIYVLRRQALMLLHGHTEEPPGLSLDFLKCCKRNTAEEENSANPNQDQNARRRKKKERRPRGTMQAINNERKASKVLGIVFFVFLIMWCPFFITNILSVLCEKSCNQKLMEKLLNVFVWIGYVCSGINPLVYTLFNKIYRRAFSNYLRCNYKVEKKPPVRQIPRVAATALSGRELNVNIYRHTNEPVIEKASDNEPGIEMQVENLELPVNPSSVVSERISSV
As to the kind of experiment: Radioligand binding assay, human 5-HT2C receptors ([3H]Mesulergine). Put shortly:
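Membranes from CHO-K1 cells stably expressing human 5-HT2C receptor were prepared in modified Tris-HCl pH 7.7 buffer. Non-specific binding was defined with 1 μM mianserin.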

Test [2] deals with T2, human serotonin 5-HT2A receptor (Homo sapiens, UniProt P28223).
T2 construct: expressed in transfected cells; host or cells: CHO-K1
T2 sequence (P28223 whole entry): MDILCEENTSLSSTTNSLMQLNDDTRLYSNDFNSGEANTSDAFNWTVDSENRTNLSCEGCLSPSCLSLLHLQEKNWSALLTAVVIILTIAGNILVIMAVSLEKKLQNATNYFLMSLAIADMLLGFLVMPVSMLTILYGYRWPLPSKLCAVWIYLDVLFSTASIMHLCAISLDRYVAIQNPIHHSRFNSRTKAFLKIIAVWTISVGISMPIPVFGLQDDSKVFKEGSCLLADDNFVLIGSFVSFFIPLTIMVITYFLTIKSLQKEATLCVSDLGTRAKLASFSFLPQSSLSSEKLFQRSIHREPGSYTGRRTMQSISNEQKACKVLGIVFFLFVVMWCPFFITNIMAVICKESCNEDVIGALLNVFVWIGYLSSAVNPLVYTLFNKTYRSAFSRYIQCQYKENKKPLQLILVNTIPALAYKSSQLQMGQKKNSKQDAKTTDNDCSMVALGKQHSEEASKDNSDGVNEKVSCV
As to the kind of experiment: Radioligand binding assay, human 5-HT2A receptors ([3H]Ketanserin).

Test [3] deals with T3, human muscarinic M4 receptor (Homo sapiens, UniProt P08173).
T3 construct: expressed in transfected cells; host or cells: BSR-M4H
T3 sequence (P08173 1-479): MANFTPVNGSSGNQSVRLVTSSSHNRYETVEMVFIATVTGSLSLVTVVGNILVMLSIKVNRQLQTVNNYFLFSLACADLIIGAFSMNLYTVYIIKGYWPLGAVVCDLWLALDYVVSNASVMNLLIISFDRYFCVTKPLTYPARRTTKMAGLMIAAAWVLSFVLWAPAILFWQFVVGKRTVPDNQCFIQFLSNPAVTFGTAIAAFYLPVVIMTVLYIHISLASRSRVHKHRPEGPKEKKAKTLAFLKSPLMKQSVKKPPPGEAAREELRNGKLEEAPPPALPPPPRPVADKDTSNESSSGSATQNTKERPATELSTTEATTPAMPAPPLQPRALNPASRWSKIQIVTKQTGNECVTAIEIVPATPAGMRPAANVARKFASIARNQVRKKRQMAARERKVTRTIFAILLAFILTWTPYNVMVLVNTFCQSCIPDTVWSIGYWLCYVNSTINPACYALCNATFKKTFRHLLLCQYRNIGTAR
As to the kind of experiment: Binding to human muscarinic M4 receptors ([3H]N-methylscopolamine). The protocol: This assay measures binding of [^3H]N-methylscopolamine to human muscarinic M4 receptors. BSR-M4H cells transfected with a plasmid encoding the human muscarinic M4 receptor were used to prepare membranes in modified Tris-HCl pH 7.4 buffer using standard techniques. A 5 μg aliquot of membrane was incubated with 0.29 nM [^3H]N-methylscopolamine for 60 minutes at 25° C. Non-specific binding was estimated in the presence of 1 μM atropine. Membranes were filtered and washed 3 times and the filters are counted to determine [^3H]N-methylscopolamine specifically bound. See Buckley, N. J., Bonner, T. I., Buckley, C. M. and Brann, M. R. Antagonist binding properties of five cloned muscarinic receptors expressed in CHO-K1 cells. Mol. Pharmacol. 35: 469–476, 1989.
The human 5-HT2a and 5-HT2b screens were conducted according to Bonhaus, D. W. et al. Br. J. Pharmacol. 1995, 115, 622. The human […], W. A. et al. J. Neurochem. 1997, 69, 1449. The human 5-HT6 screen was conducted according to Monsama, F. J. et al. Mol. Pharmacol. 1993, 43, 320. The assay to human D3 receptors was conducted according to Sokoloff, P. et al. Nature 1990, 347;146. The human dopamine transporter assay was conducted according to Gu, H. et. al. J. Biol. Chem. 1994, 269 (10);7124; and Giros, B. et al. Trends. Pharmacol. Sci. 1993, 14: 43. The human muscarinic M1–M4 screens were conducted according to Buckley N. J. et al. Mol. Pharmacol. 1989, 35:469.
The human dopamine transporter assay was conducted according to Gu, H. et. al. J. Biol. Chem. 1994, 269 (10);7124 and Giros, B. et al. Trends. Pharmacol. Sci. 1993, 14: 43. The human muscarinic M1–M4 screens were conducted according to Buckley N. J. et al. Mol. Pharmacol. 199, 35:469

The mark [4] stands for this setting: human 5-HT2c, Example 16 table, read-out: IC50 (nM) 5-HT2c.
The mark [5] stands for this setting: human 5-HT2a, Example 16 table, read-out: IC50 (nM) 5-HT2a.
[6] abbreviates: human, Example 101 table, read-out: IC50 (nM) M4.
[7] abbreviates: human, Example 100 table, read-out: IC50 (nM) M4.
The mark [8] stands for this setting: human, Example 100 table, read-out: IC50 (nM) 5-HT2C.
[9] abbreviates: human, Example 100 table, read-out: IC50 (nM) 5-HT2A.

Where two headings read alike, the source gives them in different places.

With `Clc1ccc(C2(c3csc(N4CCNCC4)n3)CCOCC2)cc1` [Compound 37], the IC50 in test [1] (setting [4]), in test [2] (setting [5]) and in test [3] (setting [6]) was less than 1000 nM each time.

On to `CN1CCN(c2nc(C3(c4ccccc4F)CCOCC3)cs2)CC1` [Compound 112], for which, in test [3] (setting [7]), the IC50 is more than 1000 nM.

For `CN1CCN(c2nc(C3(c4ccccc4)CCOCC3)cs2)CC1` [Compound 59], the IC50 in test [1] (IC50 (nM) 5-HT2c, human 5-HT2c, Example 16 table) is more than 1000 nM; in test [2] (IC50 (nM) 5-HT2a, human 5-HT2a, Example 16 table) it was more than 1000 nM; in test [3] it was more than 1000 nM.

As for `CN1CCN(c2nc(C3(c4csc5ccc(Cl)cc45)CCOCC3)cs2)CC1` [Compound 36], the 50% inhibitory concentration (IC50) was less than 1000 nM in test [1] (setting [4]), more than 1000 nM in test [2] (setting [5]) and more than 1000 nM in test [3] (setting [6]).

`CN1CCCC1CCNc1nc(C2(c3ccccc3F)CCCCC2)cs1` (single isomer, unassigned) [Compound 130, {4-[1-(2-fluorophenyl)-cyclohexyl]-thiazol-2-yl}-[2-(1-methyl-pyrrolidin-2-yl)-ethyl]-amine]: the results for the 50% inhibitory concentration (IC50) in test [1] (setting [8]), in test [2] (setting [9]) and in test [3] (setting [7]) were less than 10 nM, less than 100 nM and more than 1000 nM, respectively.

With `CN1CCCC1CCNc1nc(C2(c3ccccc3F)CCCCC2)cs1` (racemic) [Compound 128, {4-[1-(2-fluorophenyl)-cyclohexyl]-thiazol-2-yl}-[2-(1-methyl-pyrrolidin-2-yl)-ethyl]-amine], the IC50 in test [1] (setting [8]) is less than 10 nM; in test [2] (setting [9]), less than 100 nM; in test [3] (setting [7]), less than 1000 nM.

As for `CN1CCN(c2nc(C3(c4ccccc4F)CCCC3)cs2)CC1` [Compound 93], the results for the IC50 in test [1] (setting [4]), in test [2] (setting [5]) and in test [3] (setting [6]) were less than 100 nM, less than 1000 nM and less than 500 nM, respectively.

Consider `CN1CCN(c2nc(C3(c4cccc(Cl)c4)CCOCC3)cs2)CC1` [Compound 63], for which the IC50 in test [1] (setting [4]) is less than 1000 nM; in test [2] (setting [5]), more than 1000 nM; in test [3] (setting [6]) it was more than 1000 nM.

For `CN1CCN(c2nc(C3(c4ccccc4F)CCCCC3)cs2)CC1` [Compound 83], the results for the IC50 in test [1] (setting [4]), in test [2] (setting [5]) and in test [3] (setting [6]) were less than 100 nM, more than 1000 nM and less than 1000 nM, respectively.

By IC50 is commonly meant the point on the concentration scale where inhibition reaches its midpoint.
